Measurements: patent publication US20230002336A1, “MrgprX2 Antagonists and Uses Thereof” (Dermira, Inc., priority 2019, published 2023)

Biological target: T1, Human MrgprX2 (Homo sapiens, UniProt Q96LB1)
T1 construct: expressed in transfected cells; host or cells: recombinant cells
T1 sequence (Q96LB1 1-330): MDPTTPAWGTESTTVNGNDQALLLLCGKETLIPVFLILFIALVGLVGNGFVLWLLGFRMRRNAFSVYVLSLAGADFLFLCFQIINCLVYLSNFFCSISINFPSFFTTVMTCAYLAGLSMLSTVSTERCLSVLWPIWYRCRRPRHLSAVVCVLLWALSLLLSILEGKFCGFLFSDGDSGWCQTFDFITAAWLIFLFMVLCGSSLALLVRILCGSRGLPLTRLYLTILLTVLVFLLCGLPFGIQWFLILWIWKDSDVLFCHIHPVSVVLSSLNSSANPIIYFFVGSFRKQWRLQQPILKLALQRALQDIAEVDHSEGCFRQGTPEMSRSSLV
Assay: FLIPR intracellular calcium mobilization antagonist assay in recombinant hMrgpMRGPRX2 expressing cells
Format: cell-based
Settings: antagonist activity, read-out: Human MrgprX2 Antagonist pIC50 (converted)
Source text: [Worded in the source for another species; this species is reported under the same test.] The assays used to determine potencies are functional read-out looking at intracellular calcium mobilization using the FLIPR™ technology. In these FLIPR assays, we test the identified compounds using recombinant cellular systems expressing mouse MrgprB2, mouse MrgprA1, gerbil MrgpMRGPRX2 orthologue, Chinese hamster MrgpMRGPRX2 orthologue and cynomolgus monkey MrgpMRGPRX2 orthologue, respectively for orthologue activity.

Row | IC50 | SMILES
1 | 3.98 µM | C[C@@H](O)CN(C)C(=O)Nc1nnc(Cc2cc(F)cc(F)c2)s1 [Example E15]
2 | 0.0692 µM | CCN(C[C@@H](O)C(F)(F)F)C(=O)Nc1nnc(Cc2cc(C)cc(F)c2)s1 [Example E43]
3 | 0.126 µM | CN(C[C@](C)(O)C(F)(F)F)C(=O)Nc1nnc(Cc2cc(F)cc(F)c2)s1 [Example E54, 3-[5-[(3,5-difluorophenyl)methyl]-1,3,4-thiadiazol-2-yl]-1-methyl-1-[(2S)-3,3,3-trifluoro-2-hydroxy-2-methyl-propyl]urea]
4 | 0.0794 µM | CCN(CC1(O)CC1)C(=O)Nc1nnc(Cc2cc(F)cc(F)c2)s1 [Example E30]
5 | 1.58 µM | CC(C)C(=O)Nc1nnc(Cc2ccc(F)c(F)c2)s1 [Example E06]
6 | 2 µM | CC1(C(=O)Nc2nnc(Cc3cc(F)cc(F)c3)s2)CCOC1 (stereo not drawn) [Example E08]
7 | 0.0851 µM | Cc1cc(F)cc(Cc2nnc(NC(=O)N(C)C[C@@](C)(O)C(F)(F)F)s2)c1 [Example E57]
8 | 3.16 µM | CC(C)NC(=O)c1nnc(Cc2cc(F)cc(F)c2)s1 [Example E58, 5-[(3,5-difluorophenyl)methyl]-N-isopropyl-1,3,4-thiadiazole-2-carboxamide]
9 | 1 µM | CC1(C(=O)Nc2nnc(Cc3cc(F)cc(F)c3)s2)CCOCC1 [Example E07]
10 | 0.372 µM | CCN(CC(C)(C)O)C(=O)Nc1nnc(Cc2cc(C)cc(F)c2)s1 [Example E46]
11 | 2.51 µM | C[C@H](O)CN(C)C(=O)Nc1nnc(Cc2cc(F)cc(F)c2)s1 [Example E14]
12 | 0.158 µM | CCN(C[C@@H](O)C(F)(F)F)C(=O)Nc1nnc(Cc2cccc(Cl)c2)s1 [Example E37]
13 | 7.94 µM | CC(C)C(=O)Nc1nnc(Cc2ccc(F)cc2)s1 [Example E02]
14 | 0.162 µM | CN(CC(C)(C)O)C(=O)Nc1nnc(Cc2cc(Cl)cc(Cl)c2)s1 [Example E44]
15 | 0.724 µM | CCN(CC(C)(C)O)C(=O)Nc1nnc(Cc2cccc(F)c2)s1 [Example E39]
16 | 0.1 µM | CCN(C[C@H](C)O)C(=O)Nc1nnc(Cc2cc(F)cc(Cl)c2)s1 [Example E24]
17 | 0.2 µM | CCN(C[C@@H](O)C(F)(F)F)C(=O)Nc1nnc(Cc2cccc(F)c2)s1 [Example E36]
18 | 0.135 µM | CN(C[C@@H](O)C(F)(F)F)C(=O)Nc1nnc(Cc2cc(F)cc(Cl)c2)s1 [Example E47]
19 | 0.288 µM | CN(C[C@@H](O)C(F)(F)F)C(=O)Nc1nnc(Cc2cc(Cl)cc(Cl)c2)s1 [Example E45]

Row | IC50 | SMILES
20 | 2 µM | CCN(C[C@H](C)O)C(=O)Nc1nnc(Cc2ccc(F)c(F)c2)s1 [Example E13]
21 | 3.16 µM | CCN(C[C@H](C)O)C(=O)Nc1nnc(Cc2cccc(F)c2)s1 [Example E11]
22 | 0.631 µM | O=C(Nc1nnc(Cc2cc(F)cc(F)c2)s1)N1CCC(C(F)(F)F)C1 (stereo not drawn) [Example E29]
23 | 0.295 µM | CN(CC(C)(O)C(F)(F)F)C(=O)Nc1nnc(Cc2cccc(F)c2)s1 (single isomer, unassigned) [Example E50, 3-[5-[(3-fluorophenyl)methyl]-1,3,4-thiadiazol-2-yl]-1-methyl-1-(3,3,3-trifluoro-2-hydroxy-2-methyl-propyl)urea]
24 | 7.94 µM | CCN(C[C@H](C)O)C(=O)Nc1nnc(Cc2cccc(C)c2)s1 [Example E21]
25 | 0.251 µM | CCN(C[C@H](C)O)C(=O)Nc1nnc(Cc2cc(F)cc(F)c2)s1 [Example E10]
26 | 7.94 µM | O=C(Nc1nnc(Cc2cc(F)cc(F)c2)s1)N1CCCC1 [Example E25]
27 | 0.0141 µM | CCN(C[C@@H](O)C(F)(F)F)C(=O)Nc1nnc(Cc2cc(F)cc(Cl)c2)s1 [Example E48]
28 | 2.51 µM | CCN(C[C@H](C)O)C(=O)Nc1nnc(C(C)(C)c2cc(F)cc(F)c2)s1 [Example E59, 3-[5-[1-(3,5-difluorophenyl)-1-methyl-ethyl]-1,3,4-thiadiazol-2-yl]-1-ethyl-1-[(2S)-2-hydroxypropyl]urea]
29 | 10 µM | CN(CC(C)(O)C(F)(F)F)C(=O)Nc1nnc(Cc2cccc(F)c2)s1 (single isomer, unassigned) [Example E51, 3-[5-[(3-fluorophenyl)methyl]-1,3,4-thiadiazol-2-yl]-1-methyl-1-(3,3,3-trifluoro-2-hydroxy-2-methyl-propyl)urea]
30 | 3.39 µM | CCN(CC(C)(O)C(F)(F)F)C(=O)Nc1nnc(Cc2cccc(F)c2)s1 (single isomer, unassigned) [Example E53, 1-ethyl-3-[5-[(3-fluorophenyl)methyl]-1,3,4-thiadiazol-2-yl]-1-(3,3,3-trifluoro-2-hydroxy-2-methyl-propyl)urea]
31 | 0.0158 µM | CN(CC(C)(O)C(F)(F)F)C(=O)Nc1nnc(Cc2cc(F)cc(F)c2)s1 (stereo not drawn) [Example E33]
32 | 0.794 µM | CCN(C[C@H](C)O)C(=O)Nc1nnc(Cc2ccc(F)c(Cl)c2)s1 [Example E35]
33 | 3.98 µM | CC(CO)N(C)C(=O)Nc1nnc(Cc2cc(F)cc(F)c2)s1 (stereo not drawn) [Example E17]
34 | 1.26 µM | CN(CC1(O)CC1)C(=O)Nc1nnc(Cc2cc(F)cc(F)c2)s1 [Example E31]
35 | 0.2 µM | CN(CC(C)(C)O)C(=O)Nc1nnc(Cc2cc(F)cc(F)c2)s1 [Example E20]
36 | 0.158 µM | CCN(C[C@H](C)O)C(=O)Nc1nnc(Cc2cc(Cl)cc(Cl)c2)s1 [Example E32]
37 | 0.0398 µM | CCN(CC(C)(C)O)C(=O)Nc1nnc(Cc2cc(F)cc(F)c2)s1 [Example E38]
38 | 5.01 µM | O=C(Nc1nnc(Cc2cc(F)cc(F)c2)s1)N1CC[C@H](O)C1 [Example E28]

Row | IC50 | SMILES
39 | 1.58 µM | CCN(C[C@H](C)O)C(=O)Nc1nnc(Cc2cccc(F)c2F)s1 [Example E09, 3-[5-[(2,3-difluorophenyl)methyl]-1,3,4-thiadiazol-2-yl]-1-ethyl-1-[(2S)-2-hydroxypropyl]urea]
40 | 2 µM | CCN(C[C@H](C)O)C(=O)Nc1nnc(Cc2cc(F)ccc2F)s1 [Example E12]
41 | 0.0479 µM | CCN(CC(C)(O)C(F)(F)F)C(=O)Nc1nnc(Cc2cccc(F)c2)s1 (stereo not drawn) [Example E42, 1-ethyl-3-[5-[(3-fluorophenyl)methyl]-1,3,4-thiadiazol-2-yl]-1-(3,3,3-trifluoro-2-hydroxy-2-methyl-propyl)urea]
42 | 2.51 µM | CC(C)C(=O)Nc1nnc(Cc2cccc(F)c2)s1 [Example E01, N-[5-[(3-fluorophenyl)methyl]-1,3,4-thiadiazol-2-yl]-2-methyl-propanamide]
43 | 0.01 µM | CN(C[C@@](C)(O)C(F)(F)F)C(=O)Nc1nnc(Cc2cc(F)cc(F)c2)s1 [Example E55]
44 | 2 µM | O=C(Nc1nnc(Cc2cc(F)cc(F)c2)s1)N1CCC[C@@H]1CO [Example E16]
45 | 6.31 µM | CN(CC1CCOC1)C(=O)Nc1nnc(Cc2cc(F)cc(F)c2)s1 (stereo not drawn) [Example E27]
46 | 0.316 µM | CN(CC(C)(O)C(F)(F)F)C(=O)Nc1nnc(Cc2cccc(F)c2)s1 (stereo not drawn) [Example E40, 3-[5-[(3-fluorophenyl)methyl]-1,3,4-thiadiazol-2-yl]-1-methyl-1-(3,3,3-trifluoro-2-hydroxy-2-methyl-propyl)urea]
47 | 0.0162 µM | CN(C[C@@](C)(O)C(F)(F)F)C(=O)Nc1nnc(Cc2cc(F)cc(Cl)c2)s1 [Example E56]
48 | 0.038 µM | CCN(C[C@@H](O)C(F)(F)F)C(=O)Nc1nnc(Cc2cc(Cl)cc(Cl)c2)s1 [Example E49]
49 | 2.51 µM | CC(C)C(=O)Nc1nnc(Cc2cc(F)ccc2F)s1 [Example E05]
50 | 0.251 µM | CC(C)C(=O)Nc1nnc(Cc2cc(F)cc(F)c2)s1 [Example E03]
51 | 3.98 µM | CCN(C[C@H](C)O)C(=O)Nc1nnc(Cc2cc(Cl)ccc2F)s1 [Example E34]
52 | 0.00794 µM | CCN(C[C@@H](O)C(F)(F)F)C(=O)Nc1nnc(Cc2cc(F)cc(F)c2)s1 [Example E23]
53 | 0.794 µM | CCN(C[C@H](C)O)C(=O)Nc1nnc(Cc2cc(C)cc(F)c2)s1 [Example E22]
54 | 0.0501 µM | CCN(CC(C)(O)C(F)(F)F)C(=O)Nc1nnc(Cc2cccc(F)c2)s1 (single isomer, unassigned) [Example E52, 1-ethyl-3-[5-[(3-fluorophenyl)methyl]-1,3,4-thiadiazol-2-yl]-1-(3,3,3-trifluoro-2-hydroxy-2-methyl-propyl)urea]
55 | 0.0166 µM | CCN(CC(C)(C)O)C(=O)Nc1nnc(Cc2cc(F)cc(Cl)c2)s1 [Example E41]
56 | 1.26 µM | CN(CC1CCCO1)C(=O)Nc1nnc(Cc2cc(F)cc(F)c2)s1 (stereo not drawn) [Example E26]
57 | 1.26 µM | CC(C)C(=O)Nc1nnc(Cc2cccc(F)c2F)s1 [Example E04]
